Reference: patent US7759083B2, “Screening method for a growth inhibitor or promoter of a vascular smooth muscle cell” (Shionogi & Co., Ltd., priority 2004, dated 2010)

Assays:
[1] = tested on: vascular smooth muscle cells; test: Proliferation reaction of vascular smooth muscle cells by human TAT ([methyl 3H] thymidine uptake); assay type: cell-based, rat; conditions: serum-free; only some (TAT reactive) vascular smooth muscle cells respond
Procedure: Vascular smooth muscle cells were plated in a 96-well plate at a density of 2×10^3/well and cultured under the same condition as Example 1. After 3 days, the medium was changed with DMEM containing 0.05% bovine serum albumin. After culturing for one more day, the medium was changed again with new DMEM containing 0.05% bovine serum albumin and TAT was added thereto. After 20 hours from addition of TAT, 0.05 μCi/well [methyl 3H] thymidine was added thereto and the cells were cultured for 2 hours. After washing cells twice with 5% trichloroacetic acid, Super mix (PerkinElmer, Inc.) was added thereto and radioactivity derived from [methyl 3H] thymidine taken in cells was measured by Micro Beta (PerkinEimer, Inc.) (FIG. 1).

[2] = tested on: TAT reactive rat vascular smooth muscle cell clones; test: Cell proliferation potency by TAT after GPC3 knockdown with shRNA adenovirus ([methyl 3H] thymidine uptake); assay type: cell-based; conditions: adenovirus infection at MOI=10; compared to cells infected GFPi or LacZ used as a control; FIG. 3
Procedure: Adenovirus carrying GFPi or GPC3i was added to cells on a 10 cm laboratory dish at infectious MOI=10 to infect. The cells were moved on a 24-well plate 1 day after infection and cultured under the absence of blood serum for 24 hours. After that, thymidine taken in cells by the stimulus of TAT was measured.
Each of adenovirus inserted shRNA of Glypican 3 (GPC3) (GPC3i), adenovirus inserted shRNA of Green fluorescent protein (GFP) (GFPi) and adenovirus not inserted shRNA (LacZ) was infected to TAT reactive rat vascular smooth muscle cell clones. Cell proliferation potency by TAT was measured by uptake of [methyl 3H] thymidine according an experiment method.

Substance	proliferation of vascular smooth muscle cells [1]	cell proliferation by stimulus of TAT [2]
thrombin-antithrombin III complex [TAT]	proliferate some cells of vascular smooth muscle cells at very low concentration	
GPC3i: adenovirus inserted shRNA of Glypican 3 (GPC3), sequence SEQ ID: 2 (guide GAACTACACCAATGCCATGTT)		remarkably decreased
